Test results taken from ChEMBL document CHEMBL4814080, “Design, Synthesis, and Biological Evaluation of Novel 1,3-Oxazole Sulfonamides as Tubulin Polymerization Inhibitors” (ACS Med Chem Lett, 2021).
Active and inactive are the calls of the source. The rule behind the calls is not given here.

Tests used:
[1] = system: Panel NCI-60 (60 carcinoma cell lines); test: Cytotoxicity against human Panel NCI-60 (60 carcinoma cell lines) assessed as cell growth at 10 uM after 48 hrs by sulforhodamine B assay relative to control; assay type: functional; conditions: read-out: Activity
NCI/ADR-RES = test: Cytotoxicity against human NCI/ADR-RES cells assessed as cell growth at 10 uM after 48 hrs by sulforhodamine B assay relative to control; assay type: functional; conditions: read-out: Activity
SR = test: Cytotoxicity against human SR cells assessed as cell growth at 10 uM after 48 hrs by sulforhodamine B assay relative to control; assay type: functional; conditions: read-out: Activity
TK-10 = test: Cytotoxicity against human TK-10 cells assessed as cell growth at 10 uM after 48 hrs by sulforhodamine B assay relative to control; assay type: functional; conditions: read-out: Activity
COLO 205 = test: Cytotoxicity against human COLO 205 cells assessed as cell growth at 10 uM after 48 hrs by sulforhodamine B assay relative to control; assay type: functional; conditions: read-out: Activity
MOLT-4 = test: Cytotoxicity against human MOLT-4 cells assessed as cell growth at 10 uM after 48 hrs by sulforhodamine B assay relative to control; assay type: functional; conditions: read-out: Activity
SK-OV-3 = test: Cytotoxicity against human SK-OV-3 cells assessed as cell growth at 10 uM after 48 hrs by sulforhodamine B assay relative to control; assay type: functional; conditions: read-out: Activity
leukaemia cell line = test: Cytotoxicity against human leukaemia cell line assessed as cell growth inhibition measured after 48 hrs by sulforhodamine B assay; assay type: functional; conditions: for CC50: read-out: LC50 (the source's name)
[2] = system: Panel NCI-60 (60 carcinoma cell lines); test: Cytotoxicity against human Panel NCI-60 (60 carcinoma cell lines) assessed as cell growth inhibition measured after 48 hrs by sulforhodamine B assay; assay type: functional
[3] = (§1) Inhibition of porcine brain tubulin polymerization incubated for 60 mins by spectrophotometry; assay type: tissue-based, Sus scrofa
Sus scrofa = species on record: Sus scrofa; test: as §1; assay type: tissue-based

| SMILES | growth at 10 µM [1] | GI50 (leukaemia cell line) | TGI (leukaemia cell line) | CC50 (leukaemia cell line) | further results |
| --- | --- | --- | --- | --- | --- |
| CC(=O)c1ccc(NS(=O)(=O)c2ccc(-c3cnc(C4CC4)o3)cc2)cc1 | 93.5% | – | – | – | – |
| O=S(=O)(Nc1ccc(F)cc1)c1ccc(-c2cnc(C3CC3)o2)cc1 | 28.1% | – | – | – | growth at 10 µM (NCI/ADR-RES): -0.9%; growth at 10 µM (SR): 11.6%; growth at 10 µM (TK-10): 32.5%; growth at 10 µM (COLO 205): 20.2%; growth at 10 µM (MOLT-4): 12.7%; growth at 10 µM (SK-OV-3): 39.7% |
| COc1ccc(NS(=O)(=O)c2ccc(-c3cnc(C4CC4)o3)cc2)cc1Cl | 32.6% | – | – | – | – |
| O=S(=O)(Nc1ccc(C(F)(F)F)cc1)c1ccc(-c2cnc(C3CC3)o2)cc1 | 94.5% | – | – | – | – |
| O=S(=O)(Nc1ccc(I)c(Cl)c1)c1ccc(-c2cnc(C3CC3)o2)cc1 | 29.8% | 1.01 µM | 19.6 µM | > 100 µM | – |
| COc1ccc(NS(=O)(=O)c2ccc(-c3cnc(C4CC4)o3)cc2)cc1 | 56.1% | – | – | – | – |
| COc1cc(NS(=O)(=O)c2ccc(-c3cnc(C4CC4)o3)cc2)ccc1F | 25.9% | 0.328 µM | 75.7 µM | > 100 µM | – |
| CN(c1ccc(Br)cc1)S(=O)(=O)c1ccc(-c2cnc(C3CC3)o2)cc1 | 31.4% | – | – | – | GI50 [2]: 3.92 µM |
| O=S(=O)(Nc1ccc(C2CC2)cc1)c1ccc(-c2cnc(C3CC3)o2)cc1 | 63.4% | – | – | – | – |
| CN(c1ccc(F)cc1)S(=O)(=O)c1ccc(-c2cnc(C3CC3)o2)cc1 | 31.8% | – | – | – | GI50 [2]: 1.18 µM |
| O=S(=O)(Nc1ccc(OC(F)F)cc1)c1ccc(-c2cnc(C3CC3)o2)cc1 | 63.1% | – | – | – | – |
| Cc1ccc(NS(=O)(=O)c2ccc(-c3cnc(C4CC4)o3)cc2)cc1C(F)(F)F | 60.5% | – | – | – | – |
| O=S(=O)(Nc1ccc(Cl)c(C(F)(F)F)c1)c1ccc(-c2cnc(C3CC3)o2)cc1 | 11.4% | – | – | – | growth at 10 µM (NCI/ADR-RES): 2.9%; growth at 10 µM (SR): 3.5%; GI50 [2]: 0.655 µM; LC50 (concentration causing 50% net cell kill) [2]: 55.4 µM; growth at 10 µM (TK-10): 3%; growth at 10 µM (COLO 205): 2.7%; growth at 10 µM (MOLT-4): 5.2%; IC50 [3]: 0.22 µM; growth at 10 µM (SK-OV-3): 0.8% |
| O=S(=O)(Nc1cccc(Cl)c1)c1ccc(-c2cnc(C3CC3)o2)cc1 | 24.2% | 0.477 µM | 54.2 µM | > 100 µM | – |
| O=S(=O)(Nc1cc(F)cc(Cl)c1)c1ccc(-c2cnc(C3CC3)o2)cc1 | 30.3% | 1.44 µM | 77.5 µM | > 100 µM | – |
| CC(=O)O[C@H]1C(=O)[C@@]2(C)[C@H]([C@H](OC(=O)c3ccccc3)[C@]3(O)C[C@H](OC(=O)[C@H](O)[C@@H](NC(=O)c4ccccc4)c4ccccc4)C(C)=C1C3(C)C)[C@]1(OC(C)=O)CO[C@@H]1C[C@@H]2O | – | – | – | – | inhibition (Sus scrofa): inactive |
| O=S(=O)(NCC(F)F)c1ccc(-c2cnc(C3CC3)o2)cc1 | 92.2% | – | – | – | growth at 10 µM (NCI/ADR-RES): 92.3%; growth at 10 µM (SR): 89.3%; growth at 10 µM (TK-10): 104%; growth at 10 µM (COLO 205): 94.5%; growth at 10 µM (MOLT-4): 82.5%; growth at 10 µM (SK-OV-3): 101% |
| N#Cc1ccc(NS(=O)(=O)c2ccc(-c3cnc(C4CC4)o3)cc2)cc1 | 95.7% | – | – | – | – |
| O=S(=O)(Nc1cccc2ccccc12)c1ccc(-c2cnc(C3CC3)o2)cc1 | 28.6% | 0.0447 µM | 22.5 µM | > 100 µM | – |
| O=S(=O)(Nc1ccc(I)cc1Cl)c1ccc(-c2cnc(C3CC3)o2)cc1 | 39.5% | – | – | – | – |
| O=S(=O)(Nc1ccccc1Cl)c1ccc(-c2cnc(C3CC3)o2)cc1 | 27.4% | 0.429 µM | 49.7 µM | > 100 µM | – |
| O=S(=O)(Nc1cc(F)cc(F)c1)c1ccc(-c2cnc(C3CC3)o2)cc1 | 35.4% | 2.14 µM | 80 µM | > 100 µM | – |
| O=S(=O)(Nc1ccc(F)c(Cl)c1)c1ccc(-c2cnc(C3CC3)o2)cc1 | 23% | 0.26 µM | 73.7 µM | > 100 µM | – |
| O=S(=O)(Nc1ccc(Br)c(Cl)c1)c1ccc(-c2cnc(C3CC3)o2)cc1 | 21.5% | 0.491 µM | 70.3 µM | > 100 µM | IC50 [3]: < 0.08 µM |
| O=C1COCCN1c1ccc(NS(=O)(=O)c2ccc(-c3cnc(C4CC4)o3)cc2)cc1 | 96.7% | – | – | – | – |
| Cc1cc(Cl)ccc1NS(=O)(=O)c1ccc(-c2cnc(C3CC3)o2)cc1 | 24% | 0.277 µM | 54.7 µM | > 100 µM | – |

| SMILES | growth at 10 µM [1] | GI50 (leukaemia cell line) | TGI (leukaemia cell line) | CC50 (leukaemia cell line) | further results |
| --- | --- | --- | --- | --- | --- |
| O=S(=O)(Nc1ccc(I)cc1)c1ccc(-c2cnc(C3CC3)o2)cc1 | 57.3% | – | – | – | – |
| O=S(=O)(Nc1cc(Cl)c(F)c(Cl)c1)c1ccc(-c2cnc(C3CC3)o2)cc1 | 37.1% | – | – | – | – |
| O=S(=O)(Nc1ccc(Cl)c(F)c1)c1ccc(-c2cnc(C3CC3)o2)cc1 | 23.8% | 0.38 µM | 63 µM | > 100 µM | – |
| O=S(=O)(Nc1ccc2c(c1)OC(F)(F)O2)c1ccc(-c2cnc(C3CC3)o2)cc1 | 41.7% | – | – | – | – |
| Cc1ccc(Cl)c(NS(=O)(=O)c2ccc(-c3cnc(C4CC4)o3)cc2)c1 | 25.3% | 0.0488 µM | 52.8 µM | > 100 µM | – |
| CS(=O)(=O)CCNS(=O)(=O)c1ccc(-c2cnc(C3CC3)o2)cc1 | 94.1% | – | – | – | growth at 10 µM (NCI/ADR-RES): 94.1%; growth at 10 µM (SR): 80.3%; growth at 10 µM (TK-10): 99.1%; growth at 10 µM (COLO 205): 94.4%; growth at 10 µM (MOLT-4): 94.1%; growth at 10 µM (SK-OV-3): 105% |
| Cc1ccc(NS(=O)(=O)c2ccc(-c3cnc(C4CC4)o3)cc2)cc1C | 22.8% | 0.42 µM | > 100 µM | > 100 µM | – |
| O=S(=O)(Nc1ccc(Cl)cc1)c1ccc(-c2cnc(C3CC3)o2)cc1 | 24.3% | – | – | – | growth at 10 µM (NCI/ADR-RES): 4.4%; growth at 10 µM (SR): 9.9%; GI50 [2]: 1.43 µM; LC50 (concentration causing 50% net cell kill) [2]: 57.4 µM; growth at 10 µM (TK-10): 54.2%; growth at 10 µM (COLO 205): 9%; growth at 10 µM (MOLT-4): 14.2%; growth at 10 µM (SK-OV-3): 30.2% |
| O=S(=O)(Nc1ccc(N2CCOCC2)c(F)c1)c1ccc(-c2cnc(C3CC3)o2)cc1 | 92.2% | – | – | – | – |
| Cc1ccc(NS(=O)(=O)c2ccc(-c3cnc(C4CC4)o3)cc2)cc1 | 33.1% | – | – | – | – |
| O=S(=O)(Nc1ccc2c(c1)OCO2)c1ccc(-c2cnc(C3CC3)o2)cc1 | 35.8% | – | – | – | – |
| Cc1cc(F)cc(NS(=O)(=O)c2ccc(-c3cnc(C4CC4)o3)cc2)c1 | 28.1% | 0.138 µM | 7.25 µM | 78 µM | – |
| CN(c1ccc(Cl)cc1)S(=O)(=O)c1ccc(-c2cnc(C3CC3)o2)cc1 | 30.6% | – | – | – | – |
| O=S(=O)(Nc1ccc(Cl)c(Cl)c1)c1ccc(-c2cnc(C3CC3)o2)cc1 | 25.3% | 0.416 µM | 62.1 µM | > 100 µM | IC50 [3]: < 0.08 µM |
| O=S(=O)(Nc1ccc(I)cc1F)c1ccc(-c2cnc(C3CC3)o2)cc1 | 49.8% | – | – | – | – |
| O=S(=O)(Nc1ccc(C(F)(F)F)c(Cl)c1)c1ccc(-c2cnc(C3CC3)o2)cc1 | 77.1% | – | – | – | – |
| Cc1cc(Cl)cc(NS(=O)(=O)c2ccc(-c3cnc(C4CC4)o3)cc2)c1 | 31.6% | 0.175 µM | 7.04 µM | 84.9 µM | – |
| O=S(=O)(Nc1ccc(F)cc1F)c1ccc(-c2cnc(C3CC3)o2)cc1 | 29.1% | 0.356 µM | 66 µM | > 100 µM | – |
| O=S(=O)(c1ccc(-c2cnc(C3CC3)o2)cc1)N1CCOCC1 | 94.2% | – | – | – | growth at 10 µM (NCI/ADR-RES): 93.5%; growth at 10 µM (SR): 91.3%; growth at 10 µM (TK-10): 101%; growth at 10 µM (COLO 205): 95%; growth at 10 µM (MOLT-4): 95.3%; growth at 10 µM (SK-OV-3): 112% |
| O=S(=O)(Nc1ccc2ccccc2c1)c1ccc(-c2cnc(C3CC3)o2)cc1 | 28.9% | – | – | – | growth at 10 µM (NCI/ADR-RES): 9.7%; growth at 10 µM (SR): 16.5%; GI50 [2]: 1.84 µM; LC50 (concentration causing 50% net cell kill) [2]: 78.6 µM; growth at 10 µM (TK-10): 61.9%; growth at 10 µM (COLO 205): 1.5%; growth at 10 µM (MOLT-4): 20.2%; growth at 10 µM (SK-OV-3): 32.7% |
| Cc1cc(NS(=O)(=O)c2ccc(-c3cnc(C4CC4)o3)cc2)ccc1I | 35.9% | – | – | – | – |
| Cc1cc(NS(=O)(=O)c2ccc(-c3cnc(C4CC4)o3)cc2)ccc1Cl | 21.7% | 0.216 µM | 33.4 µM | > 100 µM | IC50 [3]: < 0.08 µM |
| O=S(=O)(Nc1cc(Cl)cc(Cl)c1)c1ccc(-c2cnc(C3CC3)o2)cc1 | 36.9% | – | – | – | – |
| O=S(=O)(Nc1ccc(Br)cc1)c1ccc(-c2cnc(C3CC3)o2)cc1 | 26.9% | – | – | – | growth at 10 µM (NCI/ADR-RES): -2.2%; growth at 10 µM (SR): 12.7%; GI50 [2]: 2.75 µM; LC50 (concentration causing 50% net cell kill) [2]: 54 µM; growth at 10 µM (TK-10): 64.1%; growth at 10 µM (COLO 205): 23.9%; growth at 10 µM (MOLT-4): 15.8%; growth at 10 µM (SK-OV-3): 35.5% |
| O=S(=O)(Nc1ccc(Cl)cc1Cl)c1ccc(-c2cnc(C3CC3)o2)cc1 | 25% | 0.481 µM | 74.5 µM | > 100 µM | – |
| O=S(=O)(Nc1cc(Cl)ccc1Cl)c1ccc(-c2cnc(C3CC3)o2)cc1 | 34.6% | 1.02 µM | > 100 µM | > 100 µM | – |
